This is an account of results in patent US10018637B2, “Methods for treating inflammatory and other diseases and the use of biomarkers as predictors of clinical sensitivity to treatment with apremilast” (CELGENE INTERNATIONAL II SARL, priority 2015, dated 2018).

The test system of test [1] is ankylosing spondylitis patients. The test is described as follows: Response of ankylosing spondylitis patients to apremilast treatment, by biomarker-defined patient group. It counts as in vivo, human. On the procedure: In this example, a group of ankylosing spondylitis patients was identified based on expression profile of 49 biomarkers as being more likely to be responsive to a treatment with apremilast. In particular, Myriad RBM inflammation MAP biomarker panel (having 49 biomarkers) was used to profile 280 patient samples in the study, among which 255 patient samples produced measurable biomarker levels. In these 255 patient samples, 95 patient samples were treated with 20 mg apremilast (“Apremilast 20 mg Arm Group”). Within the Apremilast 20 mg Arm Group, 36 patient samples were responsive to the treatment and 59 patient samples were not responsive to the treatment. 80 patient samples were treated with 30 mg apremilast (“Apremilast 30 mg Arm Group”). Within Apremilast 30 mg Arm Group, 31 patient samples were responsive to the treatment and 49 patient samples were not responsive to the treatment. The remaining 80 patient samples were control samples (placebo arm).
Unsupervised clustering was then used to analyze the biomarker expression profiles for these patient samples based on the 49 biomarkers (consensus clustering/distance (1-PCor)/Ward linkage method). These 49 biomarkers were Alpha-1-Antitrypsin, Alpha-2-Macroglobulin, Beta-2-Microglobulin, Brain-Derived Neurotrophic Factor, C-Reactive Protein, Complement C3, Eotaxin-1, Factor VII, Ferritin, Fibrinogen, Granulocyte-Macrophage Colony-Stimulating Factor, Haptoglobin, Intercellular Adhesion Molecule 1, Interferon gamma, Interleukin-1 alpha, Interleukin-1 beta, Interleukin-1 receptor antagonist, Interleukin-10, Interleukin-12 Subunit p40, Interleukin-12 Subunit p70, Interleukin-15, Interleukin-17, Interleukin-2, Interleukin-23, Interleukin-3, Interleukin-4, Interleukin-5, Interleukin-6, Interleukin-7, Interleukin-8, Macrophage Inflammatory Protein-1 alpha, Macrophage Inflammatory Protein-1 beta, Matrix Metalloproteinase-3, Matrix Metalloproteinase-9, MCP1, Stem Cell Factor, T-Cell-Specific Protein RANTES, Tissue Inhibitor of Metalloproteinases, Tumor Necrosis Factor alpha, Tumor Necrosis Factor beta, Tumor necrosis factor receptor 2, Vascular Cell Adhesion Molecule-1, Vascular Endothelial Growth Factor, Vitamin D-Binding Protein, von Willebrand Factor, Osteoprotegerin, Interleukin-18, RANKL, and Sclerostin.
The results are shown in the plot of FIG. 1A. As shown, a group of 50 patients (cluster 4) were identified as representing about 30% of the total treatment arm population. […] In particular, within this group of 50 patients, the response rate was about 54%, higher than the response rate in the remaining patients which was about 31%.
Each biomarker was then further analyzed for its association with the cluster 4 patient group. MCP1 cytokine was identified as being able to most strongly differentiate the cluster 4 group with the remaining patients. […] The threshold derived from the mid-point (or average) of the median of MCP1 low cluster and the median of non MCP1 low patients was 93.5 pg/ml (see the dash line in the right panel of FIG. 2A).
When the threshold was calculated as the mid-point between median MCP1 level in cluster 4 patient group and median MCP1 level in the remaining patients, the threshold level was 93.5 pg/ml.
A third method used to calculate a MCP1 threshold level was by calculating the mean of thresholds obtained from 10-fold cross validation (discussed above). In particular, each fold provided an optimal threshold according to the AUC metric when classifying for cluster membership. Then, the mean value of the 10 thresholds was calculated. Using this method, the threshold of MCP1 was calculated as 75.63 pg/ml. With this more restrictive learned threshold, the population selected into the MCP1 low group decreased while the response rate of the MCP1 low sub-group increased.

A further test relates to Ankylosing Spondylitis. The note with it: after 24 weeks, largest study trial; placebo 22%; cited from earlier work.

In the case of `CCOc1cc([C@@H](CS(C)(=O)=O)N2C(=O)c3cccc(NC(C)=O)c3C2=O)ccc1OC` [apremilast, (+)-2-[1-(3-ethoxy-4-methoxyphenyl)-2-methylsulfonylethyl]-4-acetylaminoisoindoline-1,3-dione], the “patient samples responsive to the treatment” value came to 36 in test [1] (Apremilast 20 mg Arm Group, 95 patient samples) and 31 in test [1] (Apremilast 30 mg Arm Group, 80 patient samples). The response rate in test [1] (MCP1 low group, threshold 75.63 pg/ml, apremilast 30 mg arm (22% of the patients)) is listed as 67%; in test [1] (MCP1 low group, threshold 93.5 pg/ml, apremilast 30 mg arm (45% of the patients)), 56%; in test [1] (MCP1 low group, threshold 93.5 pg/ml, both 20 mg and 30 mg arms (36% of the patients)), 49%; in test [1] (cluster 4 (MCP1 low patient group), 50 patients, 20 mg or 30 mg apremilast), “about 54%”; in test [1] (cluster 4 patients receiving 30 mg apremilast (25 patients)), 64%; in test [1] (patient subgroup differentiated by MCP1 level (14% of total population), apremilast arm 20 mg or 30 mg, FIG. 2B), “about 62.5%”. The response rate entry in test [1] (patient subgroup differentiated by MCP1 level (20% of apremilast 30 mg arm), 30 mg apremilast, FIG. 2C) is reported as “about 66.6%”; in test [1] (remaining patients (not cluster 4), treatment arms), “about 31%”; in test [1] (remaining patients in the Apremilast 30 mg Arm Group (not cluster 4)) it was 27%. For the same molecule, in test [1] (cluster 4 patients receiving 30 mg apremilast, out of 25), the patients responded came out at 16.

etanercept: in the test with Ankylosing Spondylitis, the “response rate (ASAS 20 response criteria)” value is on record as 57%.
